“Also recorded” adds a separate entry of the source. Where two headings read alike, the source gives them in different places.
Experiments:
FaDu oral cancer cells = experiment: MTT antiproliferative assay, FaDu; format: cell-based; conditions: for GI50: Homo sapiens, FaDu, read-out: GI50 for FaDu
Procedure: (§1) FaDu cell line was cultured in RPMI-1640 medium containing L-glutamine (300 mg/L) and sodium bicarbonate (2 g/L), while Cal27, HEK293 and HFF-1 cell lines were cultured in DMEM medium containing glucose (4.5 g/L), L-glutamine (584 mg/L) and sodium bicarbonate (3.7 g/L). For gene expression and qPCR studies, RNA isolation was performed using Trizol (Thermo). The reagents and the primer sequences employed for the qPCR assays have been described previously ([Chakraborty et al., 2022]).
(§2) The hits derived from the docking study were sourced from either commercial suppliers or pre-existing compounds within our laboratory or were synthesized anew. The FaDu and Cal27 oral cancer cells were treated with the compounds for 72 h at concentrations of 3, 10, 30, and 100 μM. A post-treatment MTT assay was done to evaluate their antiproliferative activity. Table S2 represents the anti-proliferative and enzyme inhibitory activity of the compounds obtained as hits from the structure-based drug design strategy. […] Consequently, 50 μM of all the hit compounds were evaluated for their HK2 enzyme inhibitory activity. 50 μM of compounds were incubated with HK2 protein and the rate of reaction was assessed in kinetic mode (rate of conversion of NAD to NADH). The choice of 50 μM concentration was based primarily on MTT assays and GI50 calculation. The average GI50 values of the hit compounds against less sensitive FaDu cell line was approximately 50 μM. Considering this information, we reasoned that utilizing a concentration equivalent to the average GI50 would allow us to assess the maximum inhibitory effect of the compounds on HK2 enzyme activity. […] The same compounds have been previously reported by our team to have EGFR phosphorylation inhibitory potential and were coded as H2 (compound 14) and H10 (compound 11) ([Chakraborty et al., 2022]). […] Figures 1C,D show the lead compounds H2 and H10 at the active site of HK2 enzyme interacting via H-bonds with the amino acid residues.

Cal27 oral cancer cells = experiment: MTT antiproliferative assay, Cal27; format: cell-based; conditions: Homo sapiens, read-out: GI50 for Cal27
Procedure: as §1, §2

HK2 [1] = biological target: T1, HK2 (Homo sapiens, UniProt P52789); experiment: HK2 enzyme inhibition assay (Abcam kit ab211114); format: biochemical; conditions: read-out: % inhibition of HK2 enzyme activity at 50 µM
T1 construct: purchased Abcam ab211114
T1 sequence (P52789 1-917): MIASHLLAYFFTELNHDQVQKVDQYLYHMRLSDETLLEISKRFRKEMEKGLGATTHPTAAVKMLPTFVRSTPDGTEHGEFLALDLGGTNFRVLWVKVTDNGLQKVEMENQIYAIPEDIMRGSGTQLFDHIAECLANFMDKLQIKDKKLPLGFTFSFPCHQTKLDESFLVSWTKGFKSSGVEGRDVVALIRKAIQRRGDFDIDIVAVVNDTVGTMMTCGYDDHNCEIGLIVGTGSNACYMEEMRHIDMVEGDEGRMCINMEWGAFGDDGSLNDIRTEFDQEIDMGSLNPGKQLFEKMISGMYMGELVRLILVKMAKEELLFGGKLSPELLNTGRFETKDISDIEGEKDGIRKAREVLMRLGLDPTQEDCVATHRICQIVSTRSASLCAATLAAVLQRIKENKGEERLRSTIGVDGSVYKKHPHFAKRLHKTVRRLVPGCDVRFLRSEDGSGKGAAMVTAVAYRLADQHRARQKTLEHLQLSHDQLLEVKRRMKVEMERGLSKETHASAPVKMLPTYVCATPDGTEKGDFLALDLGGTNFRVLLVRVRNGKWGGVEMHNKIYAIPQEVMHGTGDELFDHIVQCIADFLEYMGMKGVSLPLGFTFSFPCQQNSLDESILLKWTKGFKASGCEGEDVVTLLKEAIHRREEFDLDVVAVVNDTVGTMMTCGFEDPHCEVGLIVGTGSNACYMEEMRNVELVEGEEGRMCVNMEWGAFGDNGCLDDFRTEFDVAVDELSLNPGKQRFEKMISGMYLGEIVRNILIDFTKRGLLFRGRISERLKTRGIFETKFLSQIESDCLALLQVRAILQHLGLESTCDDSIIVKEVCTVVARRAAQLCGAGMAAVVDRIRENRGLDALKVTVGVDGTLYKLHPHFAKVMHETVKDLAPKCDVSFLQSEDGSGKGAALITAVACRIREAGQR
Procedure: The HK2 enzyme inhibition assay was performed using an HK2 inhibitor assay kit (Abcam, ab211114) according to the manufacturer’s instructions. Initially, 50 µM compound concentration was used to perform the enzyme activity inhibition studies, after which IC50 of the top leads were determined.
as §2

FaDu cells = experiment: 2-NBDG glucose uptake assay (flow cytometry), FaDu; format: cell-based; conditions: 10 μM and 30 μM, 72 h, vs DMSO control
Procedure: (§3) FaDu and Cal27 cells were treated with test compounds (0.2 million cells per treatment) and were incubated for 1 h with 100 μM of 2-NBDG (Invitrogen, N13195), in glucose free medium, washed with ice-cold PBS, and re-suspended in 500 μL of PBS and maintained on ice to perform flow cytometric analyses within 30 min. The mean fluorescent intensity (MFI) readout reflects the amount of fluorescent glucose analog taken up by the cells, providing insight into their glucose uptake capacity. The percent (%) cell population positive for glucose uptake (shown with a right shift of the histogram peaks) were also plotted for both the cell lines. For MMP analysis, cells were incubated with 200 nM of TMRE (Invitrogen, T669) for 30 min. For each measurement, data was collected for 10,000 events using a BD FACS Aria III (Becton Dickinson, San Jose, CA) instrument.
(§4) 2-[N-(7-Nitrobenz-2-oxa-1,3-diaxol-4-yl) amino]-2-deoxyglucose (2-NBDG) uptake into cells happens via glucose transporters and post uptake 2-NBDG gets phosphorylated by hexokinases. Since cancer cells represent higher glycolytic activity, the inhibition of HK2 activity in cancer cells is actively reflected in the inhibition of 2-NBDG uptake ([Hung et al., 2022]; [Li et al., 2022]). […] In this assay, the MFI of intracellular 2-NBDG serves as a quantitative measure of cellular glucose uptake. […] This finding is further supported by the increased % population of 2-NBDG positive cells in Cal27 cells compared to FaDu cells (Figure 3).

Cal27 cells = experiment: 2-NBDG glucose uptake assay (flow cytometry), Cal27; format: cell-based; conditions: Cal27, 10 μM and 30 μM, 72 h, vs DMSO control
Procedure: as §3, §4

HK2 [2] = biological target: T1, HK2; conditions: ref Liu and Liu, 2022; read-out: IC50 as reported against HK2; cited from earlier work

With `O=C(O)C(=O)CBr` [Compound 1, 3-Bromo pyruvic acid] as the molecule, how does the GI50 (FaDu oral cancer cells; 72 h) read?
Its GI50 is 23.9 µM.

And the GI50 (Cal27 oral cancer cells; CAL-27, 72 h)?
Its GI50 is 36.4 µM.

And the inhibition at 50 µM (HK2 [1])?
Its inhibition at 50 µM is 88.2%.

And the “2-NBDG MFI” value (FaDu cells)?
The value was “significant reduction”.

What about the “2-NBDG MFI” value (Cal27 cells) of the same molecule?
Its value is “significant reduction”.

And the IC50 (HK2 [2])?
Its IC50 is under 5 µM.

With `O=CC[C@@H](O)[C@H](O)[C@H](O)CO` [Compound 15, 2-Deoxy Glucose] as the molecule, how does the GI50 (FaDu oral cancer cells; MTT, 72 h treatment, mean ± SEM) read?
The GI50 was over 100 µM.

What about the “GI50 for FaDu” value (FaDu oral cancer cells; MTT, 72 h treatment, mean ± SEM, listed as 2-DG) of the same molecule?
The value was “no efficacy; also recorded: limited efficacy”.

What about the GI50 (Cal27 oral cancer cells; CAL-27, MTT, 72 h treatment, mean ± SEM) of the same molecule?
Its GI50 is 77.6 µM.

And the “2-NBDG MFI” value (FaDu cells)?
The value was “significant reduction”.

What about the “2-NBDG MFI” value (Cal27 cells) of the same molecule?
Its value is “significant reduction”.

— PMC10961359, “Targeting hexokinase 2 for oral cancer therapy: structure-based design and validation of lead compounds” (Frontiers in Pharmacology, 2024)
